Read-outs that look alike come from different tables or passages of the source.
Experiments:
[1] = tested on: U2OS cells; assay: Titre Blue cell viability assay, U2OS cells; assay type: cell-based
[2] = tested on: HSP72 in U2OS cells; assay: Cell-based ELISA (Cellisa) assay, U2OS cells: inhibition of 17-AAG-induced HSP72; settings: U2OS cells (Examples 1-168)

## Cc1ccc(NC(=O)c2ccc3c(c2)OCCO3)cc1NC(=O)c1cnc2[nH]ccc2c1 [Example 100, N-(5-(2,3-dihydrobenzo[b][1,4]dioxine-6-carboxamido)-2-methylphenyl)-1H-pyrrolo[2,3-b]pyridine-5-carboxamide]
[1]; Homo sapiens, U2OS
  IC50: 54 nM
[2]; Homo sapiens
  IC50: 43 nM

## Cc1ccc2cc(C(=O)Nc3cc(NC(=O)c4ccc5c(c4)OCCO5)ccc3C(F)(F)F)ccc2n1 [Example 129, N-(5-(2,3-dihydrobenzo[b][1,4]dioxine-6-carboxamido)-2-(trifluoromethyl)phenyl)-2-methylquinoline-6-carboxamide]
[1]; Homo sapiens, U2OS
  IC50: 162 nM
[2]; Homo sapiens
  IC50: 344 nM

## 2-(2-aminoethoxy)-N-(5-(2,3-dihydrobenzo[b][1,4]dioxine-6-carboxamido)-2-methyl)phenyl)quinoline-6-carboxamide [Example 89]
[1]
  IC50: 15 nM
[2]
  IC50: 13 nM

## COc1ccc(C(=O)Nc2cc(NC(=O)c3ccc4c(c3)OCCO4)ccc2C)cc1Cl [Example 28, N-(3-(3-chloro-4-methoxybenzamido)-4-methylphenyl)-2,3-dihydrobenzo[b][1,4]dioxine-6-carboxamide]
[1]; Homo sapiens, U2OS
  IC50: 415 nM
[2]; Homo sapiens
  IC50: 416 nM

## Cc1ccc(NC(=O)c2ccc3c(c2)OCCO3)cc1NC(=O)c1ccc(-n2cccn2)cc1 [Example 107, N-(3-(4-(1H-pyrazol-1-yl)benzamido)-4-methylphenyl)-2,3-dihydrobenzo[b][1,4]dioxine-6-carboxamide]
[1]; Homo sapiens, U2OS
  IC50: 227 nM
[2]; Homo sapiens
  IC50: 295 nM

## Cc1ccc(NC(=O)c2ccc3c(c2)OCO3)cc1NC(=O)c1ccc2ncccc2c1 [Example 131, N-(5-(benzo[d][1,3]dioxole-5-carboxamido)-2-methylphenyl)quinoline-6-carboxamide]
[1]; Homo sapiens, U2OS
  IC50: 74 nM
[2]; Homo sapiens
  IC50: 171 nM

## Cc1ccc(NC(=O)c2ccc3c(c2)OCCO3)cc1NC(=O)c1ccc2nc(OC(C)CN3CCCC3)ccc2c1 (centres unmarked) [Example 73, N-(5-(2,3-dihydrobenzo[b][1,4]dioxine-6-carboxamido)-2-methylphenyl)-2-((1-(pyrrolidin-1-yl)propan-2-yl)oxy)quinoline-6-carboxamide]
[1]; Homo sapiens, U2OS
  IC50: 21 nM
[2]; Homo sapiens
  IC50: 90 nM

## Cc1ccc(NC(=O)c2ccc3c(c2)OCCO3)cc1NC(=O)c1ccc2c(c1)CCCN2C [Example 143, N-(5-(2,3-dihydrobenzo[b][1,4]dioxine-6-carboxamido)-2-methylphenyl)-1-methyl-1,2,3,4-tetrahydroquinoline-6-carboxamide]
[1]; Homo sapiens, U2OS
  IC50: 26 nM
[2]; Homo sapiens
  IC50: 55 nM

## Cc1ccc2cc(C(=O)Nc3cc(NC(=O)c4cnc5c(c4)OCCO5)ccc3C)ccc2n1 [Example 135, N-(4-methyl-3-(2-methylquinoline-6-carboxamido)phenyl)-2,3-dihydro-[1,4]dioxino[2,3-b]pyridine-7-carboxamide]
[1]; Homo sapiens, U2OS
  IC50: 29 nM
[2]; Homo sapiens
  IC50: 27 nM

## Cc1ccc(NC(=O)c2ccc3c(c2)OCCO3)cc1NC(=O)c1ccc2c(c1)CCN2C [Example 7, N-(5-(2,3-dihydrobenzo[b][1,4]dioxine-6-carboxamido)-2-methylphenyl)-1-methylindoline-5-carboxamide]
[1]; Homo sapiens, U2OS
  IC50: 37 nM
[2]; Homo sapiens
  IC50: 55 nM

## Cc1ccc(NC(=O)c2ccc3c(c2)OCCO3)cc1NC(=O)c1ccc2c(c1)CCN2 [Example 84, N-(5-(2,3-dihydrobenzo[b][1,4]dioxine-6-carboxamido)-2-methylphenyl)indoline-5-carboxamide]
[1]; Homo sapiens, U2OS
  IC50: 95 nM
[2]; Homo sapiens
  IC50: 184 nM

## Cc1ccc(NC(=O)c2ccc3c(c2)OCCO3)cc1NC(=O)c1ccc2nc(COC(C)C)ccc2c1 [Example 145, N-(5-(2,3-dihydrobenzo[b][1,4]dioxine-6-carboxamido)-2-methylphenyl)-2-(isopropoxymethyl)quinoline-6-carboxamide]
[1]; Homo sapiens, U2OS
  IC50: 17 nM
[2]; Homo sapiens
  IC50: 64 nM

## Cc1ccc(NC(=O)c2ccc3c(c2)OCCO3)cc1NC(=O)c1ccc2nc(OC[C@@H]3CCCN3C)ccc2c1 [Example 53, (S)—N-(5-(2,3-dihydrobenzo[b][1,4]dioxine-6-carboxamido)-2-methylphenyl)-2-((1-methylpyrrolidin-2-yl)methoxy)quinoline-6-carboxamide]
[1]; Homo sapiens, U2OS
  IC50: 7 nM
[2]; Homo sapiens
  IC50: 7 nM

From patent US9701664B2, “Fused 1,4-dihydrodioxin derivatives as inhibitors of heat shock transcription factor 1” (Cancer Research Technology Limited, priority 2013, dated 2017)
